In patent US6482800B1, “Methods to stimulate angiogenesis” (The University of Southern California, priority 1998, dated 2002):
Entries after “also recorded” stand apart in the source; their conditions may differ. Square brackets hold non-standard residues; d marks the D form. Ends that are not written are not given here. Nle = CCCC[C@H](N)C(=O)O

Key:
[1] = tested on: Ischemic Myocardial Tissue; assay: Formation of collateral circulation in ischemic myocardial tissue after coronary artery ligation; assay type: in vivo, Rabbits; settings: rabbit, peptide 1 mg/ml; for Number of blood vessels present in the infarct site, Mean ± SEM: left circumflex and left anterior descending arteries ligated, 0.05 ml in Hydron vehicle injected in cardiac muscle, necropsy from day 7, microscopic examination; for Vascularization of the infarct site: 0.05 ml injected distal to coronary occlusion, versus vehicle
Method: Rabbits underwent a surgical procedure under intramuscular anesthesia (Ketamine and Rompum) after shaving with animal clippers and preparation with betadine and isopropyl alcohol. A midline sternotomy was performed. After exposure of the pericardial sac, a three centimeter incision was made into the pericardium. After visualization of the epicardial surface, two coronary arteries, the left circumflex and the left anterior descending arteries, were exposed and ligated by 4-0 Vicryl suture. Vehicle (10% Hydron, 60% ethanol and 1% polyethylene glycol), with or without peptide (1 mg/ml, 0.05 ml) was injected in the cardiac muscle distal to the site of coronary occlusion. The sternum was then closed with 2-0 Silk. The muscle and skin were then closed with 3-0 Dexon II suture. Starting at 7 days after surgery, the animals were euthanized and necropsies performed. The number of blood vessels present in the infarct site was assessed grossly and by microscopic evaluation.

AT2 receptor = target: T1, AT2 receptor (Homo sapiens, UniProt P50052); settings: cited from earlier work
T1 sequence (P50052 1-363): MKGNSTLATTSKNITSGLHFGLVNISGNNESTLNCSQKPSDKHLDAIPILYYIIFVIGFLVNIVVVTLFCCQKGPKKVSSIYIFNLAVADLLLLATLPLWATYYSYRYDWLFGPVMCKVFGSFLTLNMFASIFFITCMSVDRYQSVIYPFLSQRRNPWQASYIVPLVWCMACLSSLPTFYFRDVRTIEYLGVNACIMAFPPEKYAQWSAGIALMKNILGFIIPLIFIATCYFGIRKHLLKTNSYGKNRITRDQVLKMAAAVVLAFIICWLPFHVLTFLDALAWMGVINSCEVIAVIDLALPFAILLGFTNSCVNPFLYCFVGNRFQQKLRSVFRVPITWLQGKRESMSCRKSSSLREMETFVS

burn areas = assay: Partial thickness thermal injury model; assay type: in vivo, Hartley guinea pigs; settings: 1 mg/ml peptide in 10% low-viscosity CMC, topical on burn; day 7
rabbit corneal eye = rabbit corneal eye model; cited from earlier work
[2] = tested on: chick chorioallantoic membrane; settings: chick chorioallantoic membrane model; cited from earlier work
[3] = tested on: Living skin equivalent (LSE) graft tissue; assay: Engraftment of living skin equivalent (LSE) on full thickness skin excision; assay type: in vivo, Swiss nude mice; settings: LSE soaked 15 minutes in 1.0 mg/ml peptide; day 7; compared to untreated LSE
Method: Male Swiss nude mice (22-24 g) were anesthetized with an intramuscular injection of Ketaset/Rompun and a 1 cm×1 cm full thickness skin excision was made on their dorsal surface. Living skin equivalent (LSE) was placed in the defect and trimmed with microscissors so that no gap was observed between the edges of the mouse skin and the LSE. The mice were divided into 6 groups based upon the peptide tested: (0 [LRS-Dextrose], or 1.0 mg/ml AII or AII analogues, AII (1-7) [SEQ ID NO:4]; Ala4AIII [SEQ ID NO:18]; Pro3AII [SEQ ID NO:31]; and Ile8AII [SEQ ID NO: 42]; see Table 3) and the LSE was soaked for 15 minutes in lactated Ringers solution with 5% dextrose with or without peptides prior to placement. After the graft was placed, the dorsal surface of the mouse was covered by petrolatum-embedded gauze followed by two adhesive bandages. After recovery from anesthesia, the mice were returned to their individual cages and observed daily until euthanasia. The mice received intramuscular analgesia for the first three days after surgery. No mouse lost its bandages prior to necropsy or bandage removal on day 7. The mice were necropsied on day 7. At necropsy, the degree of graft take and the appearance of the grafted tissue was noted prior to placement of the biopsy in 10% buffered formalin in preparation for paraffin embedding and section for hematoxylin and eosin staining.

rat kidneys = settings: cited from earlier work
[4] = Unspecified test of effectiveness of AII fragments

Row | Substance | Number of blood vessels present in the infarct site, Mean ± SEM [1] | Vascularization of the infarct site [1] | also measured
1 | Asp-Arg-Val-Tyr-Ile-His-Pro (DRVYIHP) [AII(1-7)] | 80.6 ± 4.5 | increase vascularization | –
2 | Asp-Arg-Val-Tyr-Ile-His-Pro-Phe (DRVYIHPF) [AII] | – | – | Affinity for AT2 relative to AT1 (AT2 receptor): 100 times
3 | Asp-Arg-Val-Tyr-Ile-His-Pro-Phe [AII] | 29.8 ± 12.3 | increase vascularization | Blood flow response (angiogenesis) after thermal injury, compared to control (burn areas): increased blood flow response compared to control; Angiogenic activity (rabbit corneal eye): angiogenic; Angiogenic activity [2]: angiogenic; Angiogenesis (vascular channel formation) in graft tissue [3]: increased; Endothelial cell production in graft tissue [3]: increased; Activation of collateral circulation via preformed blood vessels (rat kidneys): activate collateral circulation
4 | DR(nor)YIHP (DR[Nle]YIHP) [Analogue 9GD] | 21.2 ± 2.8 | increase vascularization | –
5 | DRKYIHP [Analogue 5GD] | 24.55 ± 2.34 | increase vascularization | –
6 | DRPYIHP [Analogue 2GD] | 31.2 ± 5.62 | increase vascularization | –
7 | DRVAIHP [Analogue 1GD] | 23.4 ± 8.6 | increase vascularization | –
8 | His-Pro-Phe (HPF) [AII(6-8)] | – | – | Effectiveness (test not specified) [4]: not to be effective
9 | Tyr-Ile-His-Pro-Phe (YIHPF) [AII(4-8)] | – | – | Effectiveness (test not specified) [4]: not to be effective; also recorded: ineffective
